According to US20220025003A1, “REAGENTS AND METHODS FOR CONTROLLING PROTEIN FUNCTION AND INTERACTION” (University of Washington, priority 2018, published 2022):

Assays:
NS3a in NIH3T3 cells [1] = test: Confocal microscopy for colocalization analysis (fixed cells); assay type: cell-based; conditions: 10 μM drug, 1 h
Procedure: A Leica SP8× system was used for confocal microscopy. […] TagBFP emission was recorded on a PMT detector, and EGFP and mCherry™ were detected by separate HyD™ detectors.
Colocalization experiments were performed in NIH3T3 cells (Flp-In-3T3, Thermo Fisher Scientific). For fixed-cell experiments, cells were plated at 3×10^4 cells/mL on sterile glass coverslides placed in 12-well culture plates. […] One day after transfection, cells were treated with drug or DMSO and fixed. Drug additions were performed by exchanging the media for DMEM+10% v/v FBS plus drug. To fix, cells were washed once with DPBS (Thermo Fisher Scientific), then incubated with 4% v/v paraformaldehyde in DPBS for 15 minutes. After washing twice with DPBS, coverslides with cells were removed from the plate and mounted on glass slides using Fluoromount-G (SouthernBiotech).
Colocalization of NS3a and DNCR1 at the plasma membrane, nucleus, mitochondria and Golgi was performed with two sets of constructs, with either NS3a or DNCR1 as the immobilized component. mCherry™-NS3a was used with Tom20-DNCR1-EGFP, DNCR1-EGFP-Giantin, and 3×NLS-DNCR1-EGFP. […] Colocalization was analyzed after 1 h of 10 μM drug or equal volume DMSO treatment.
All images were analyzed using ImageJ. […] EGFP fluorescence was quantified in the ROI over the timecourse. […] The cytoplasmic fluorescence was normalized to the value in the first and last frame for each cell. […]

[2] = system: RAS/ERK pathway in HEK293 cells; test: Activation of NS3a-CDAR, phospho-ERK blot; assay type: cell-based; conditions: 10 μM drug, 60 min
Procedure: 18-24 hours prior to transfection, 3.0×10^5 HEK293 cells were plated onto poly-D-lysine 12 well plates. Immediately prior to transfection, media was aspirated and cells were washed with 1 mL of pre-warmed (37° C.) PBS, then serum starved with FBS-free DMEM. Following serum starvation, cells were transfected with 1 μg of FLAG-tagged NS3a-CDAR, BH3-NS3a-CDAR, or an empty pCDNA5 vector. Transfected cells were allowed to serum stave for 18-20 hours prior to drug treatment. For drug treatment, serum-free media was prepared with DMSO or 10 μM of a drug. Media was aspirated, washed once with pre-warmed DPBS, then treated with drug/DMSO media for the requisite amount of time. Media was subsequently aspirated and the cells were washed twice with 1 mL chilled PBS, then lysed with 75 μL Mod. RIPA buffer (50 mM Tris, pH 7.8, 1% IGEPAL CA-630, 150 mM NaCl, 1 mM EDTA, 2 mM Na3VO4, 30 mM NaF, Pierce Protease Inhibitor Tablet). Cleared lysates were subjected to SDS-PAGE and transferred to nitrocellulose. Blocking and antibody incubations were done in TBS with 0.1% Tween-20 (v/v) and blocking buffer (Odyssey). Primary antibodies were all purchased from Cell Signaling Technologies and were diluted as follows: Total ERK (1:2500, #9107), phosphorylated ERK (1:2500, #4370), FLAG (1:2,500, #D6W5B). Blots were washed three times in TBS with 0.1% Tween-20. Antibody binding was detected by using near-infrared-dye-conjugated secondary antibodies and visualized on the LI-COR Odyssey scanner. Blots were quantified via densitometry with Image Studio (LI-COR).

NS3a in NIH3T3 cells [3] = test: Confocal microscopy for colocalization analysis (fixed cells); assay type: cell-based; conditions: for DNCR2-EGFP colocalization with mitochondrial Tom20-mCherry-NS3a: 10 μM drug, 1 h
GFP, CD95 and CXCR4 = test: 3-gene experiment (GFP, CD95, CXCR4) by RT-qPCR; assay type: cell-based; conditions: 10 μM danoprevir, 1 μM grazoprevir, 1 μM asunaprevir
Description: Cells were harvested on day 5 as described above for other samples to be analyzed to qPCR.

[4] = system: mCherry reporter gene in HEK293T cells; test: Chemically-disruptable Gal4(DBD)-NS3a(H1)/ANR-VPR transcriptional regulation; assay type: cell-based; conditions: 1 μM drug, 24 hours
Procedure: Cells were subsequently transfected with 1 μg of the Gal4 reporter plasmid (UAS-mCherry™/CMV-Gal4-NS3a(H1)-P2A-ANR-Myc-BFP-VPR-NLS) in OptiMem™. […] Supernatant was subsequently removed and the cells were re-suspended in 400 μL DPBS and analyzed on a FACS LSRII (BD Biosciences).
For Gal4/NS3a-CDP mediated transcriptional activation FACS experiments, 10,000 single cell events were collected for each of the samples run. […] The gathered FACS data were analyzed using FlowJo™ (v.10.1).

CXCR4 = test: cells; conditions: Homo sapiens, read-out: EC50 (CXCR4 expression)
[5] = system: GFP reporter gene in HEK293T cells; test: dciCas9-mediated transcription; assay type: cell-based; conditions: 10 μM A115 and 10 μM grazoprevir
Procedure: For FACS analysis, 10,000 single cell events were collected for each of the samples run. […] The gathered FACS data were analyzed using FlowJo (v.10.1).

HeLa cells = test: Widefield microscopy for signaling phenotype analysis; assay type: cell-based; conditions: EGFP-DNCR2-TIAM, BFP-GNCR1-LARG and NS3a-CAAX in HeLa cells
Procedure: Widefield images were collected in an environmental chamber with humidity control, 37° C., and 5% CO2 on a Leica DMi8 automated fluorescence microscope. Cells were plated on glass-bottomed 96-well plates (Cellvis). Plates were treated with 10 μg/mL bovine fibronectin (Sigma Aldrich) for 1 hour and washed once with PBS.
The cell line used was TRex™-HeLa (ThermoFisher Scientific), into which Lifeact-mCherry™ was stably integrated into the doxycycline-regulated Flp-In site by co-transfection of the pCDNA5-FRT/TO-Lifeact-mCherry™ vector with the Flp recombinase plasmid pOG44 (ThermoFisher Scientific) according to manufacturer's protocols. Lifeact-mCherry™ was induced by addition of 1 μg/mL doxycycline to culture media. For expression of signaling effector proteins, 1 day prior to imaging, 5×10^6 cells were transiently transfected with 10 μg DNA in a 100 μL electroporation tip using a Neon transfection system (ThermoFisher Scientific) according to manufacturer's recommendations for HeLa cells. 5×10^3 cells were plated in each well of the 96-well plate used for imaging. Cells recovered in complete DMEM with 10% FBS overnight. […] For Rac/Rho regulation, the construct PB-NS3a-CAAX-IRES-EGFP-DNCR2-TIAM-P2a-BFP-GNCR1-LARG was used, with images collected for the mCherry™ (Lifeact) and EGFP (DNCR2-TIAM) channels. […]

NS3a protease = biological target: T1, NS3a protease (Hepatitis C virus genotype 1b, UniProt Q9WMX2, A1176V/C1042I/E1056D/L1047A/L1120M/Q1112P/R1052K/V1062L/V1196I); test: NS3a protease inhibition FRET assay; assay type: biochemical; conditions: ANR-GST fusion, FRET-based protease assay
T1 construct: SNAPtag-NS3a-His6; made in house; host or cells: E. coli BL21(DE3)
Procedure: The potency of ANR against NS3a protease was determined via a FRET assay. Titrations of ANR-GST (3-fold serial dilutions starting at 10 μM) were added to a black 96-well plate (Corning, product number 3720) containing 50 nM SNAPtag-NS3a. Reactions were incubated with NS3a-SNAPtag at room temperature for 1 hour. To each well was simultaneously added substrate M-2235 (Bachem) to a final concentration of 5 μM and reactions were monitored by measuring the fluorescence intensity every minute for 30 minutes at 22° C. on a Perkin Elmer EnVision™ fluorometer (excitation, 360 nm; emission 460 nm). Each measurement was carried out in triplicate. Slopes of the fluorescence increase were compared to a no-protease control. A nonlinear regression model was used to fit curves using GraphPad™ Prism.

NS3a* = biological target: T2, NS3a* (Hepatitis C virus genotype 1a, UniProt P27958, C1073S/C1078L/C1185S/I1043Q/I1044E/I1098T/L1039E/L1040E/L1047Q/L1179I/N1200S/P1112Q/Q1106K/T1100M/T1173A); test: Fluorescence polarization binding assay (FB50) with FAM-ANR
T2 construct: His6-NS3a; made in house; host or cells: E. coli BL21 (DE3)
Procedure: (§1) The affinities of the NS3a variants for ANR were determined using a fluorescence polarization assay. Fluorescently labeled ANR (FAM-ANR, FIG. 5B) was obtained as a crude mixture from GenScript™ and purified by HPLC. Titrations of recombinant NS3a variants (3-fold serial dilutions, starting at 5 μM) were diluted in FP-Buffer (50 mM HEPES, pH 7.8, 100 mM NaCl, 5 mM DTT, 1% Glycerol, 0.01% Tween, 5% v/v DMSO). These dilutions were added to a wells containing FAM-ANR (final concentration=10 nM). FAM-ANR/NS3a solutions were incubated at room temperature in the dark for 1 hour. Fluorescence polarization was measured on a Perkin Elmer EnVision™ fluorometer (excitation, 495 nm; emission 520 nm). All measurements were carried out in black 96-well plates (Corning, product #: 3720) and run in triplicate. Anisotropy values were obtained and a nonlinear regression model was used to determine binding constants in GraphPad™ Prism.

NS3a = biological target: T3, NS3a (Hepatitis C virus genotype 1b, UniProt Q9WMX2, A1176V/E1056D/L1047A/L1120M/Q1112P/R1052K/V1062L/V1196I); test: as above
T3 construct: Avi-His6-NS3a; the text calls the FP protein non-biotinylated) (N); made in house; host or cells: E. coli BL21 (DE3)
Procedure: as §1

C=C[C@@H]1C[C@]1(NC(=O)[C@@H]1C[C@@H](Oc2ncc(OC)c3ccc(Cl)cc23)CN1C(=O)[C@@H](NC(=O)OC(C)(C)C)C(C)(C)C)C(=O)NS(=O)(=O)C1CC1 [asunaprevir]
Colocalization of DNCR1-EGFP and NS3a-mCherry (NS3a in NIH3T3 cells [1]): much lower correlation | phospho-ERK levels in cells expressing NS3a-CDAR [2]: robust increase in phospho-ERK levels | DNCR2-EGFP colocalization with mitochondrial Tom20-mCherry-NS3a (NS3a in NIH3T3 cells [3]): neither grazoprevir nor asunaprevir induced DNCR2-EGFP colocalization | transcriptional output state in 3-gene system (GFP, CD95 and CXCR4): no gene expression

C=C[C@@H]1C[C@]1(NC(=O)[C@@H]1C[C@@H]2CN1C(=O)[C@H](C(C)(C)C)NC(=O)O[C@@H]1C[C@H]1CCCCCc1nc3ccc(OC)cc3nc1O2)C(=O)NS(=O)(=O)C1CC1 [grazoprevir]
mCherry expression after drug treatment [4]: decreased mCherry™ expression to background levels | EC50 (CXCR4): 0.16 ± 0.03 nM | Colocalization of DNCR1-EGFP and NS3a-mCherry (NS3a in NIH3T3 cells [1]): much lower correlation | phospho-ERK levels in cells expressing NS3a-CDAR [2]: robust increase in phospho-ERK levels | GFP expression on co-administration with A115 [5]: reversed | Colocalization of DNCR2-EGFP and GNCR1-BFP with NS3a-mCherry-CAAX (NS3a in NIH3T3 cells [3]; 5 μM drug): GNCR1/NS3a colocalization | Colocalization of NS3a-mCherry with GNCR1-BFP-CAAX or Tom20-DNCR2-EGFP (NS3a in NIH3T3 cells [3]; 5 μM drug, 15 min): exclusively colocalized NS3a-mCherry™ to plasma membrane-targeted GNCR1-BFP-CAAX | DNCR2-EGFP colocalization with mitochondrial Tom20-mCherry-NS3a (NS3a in NIH3T3 cells [3]): neither grazoprevir nor asunaprevir induced DNCR2-EGFP colocalization | transcriptional output state in 3-gene system (GFP, CD95 and CXCR4): CXCR4 expression under control of GNCR1 | cell shape change (HeLa cells): caused cell contraction

genetically-encoded peptide inhibitor of NS3a, GELDELVYLLDGPGYDPIHSD (SEQ ID NO:14); tested as ANR-GST and FAM-ANR
apparent IC50 against NS3a activity (NS3a protease): less than the concentration of NS3a protease used in the assay | affinity for NS3a* (NS3a*): very low affinity | binding to NS3a (NS3a): binds tightly
